Drawing on patent publication US20200163950A1, “PIPERIDINE-DIONE DERIVATIVES FOR USE AS CONTRACEPTIVES” (SPERMATECH AS, priority 2017, published 2020), this text covers IC50 for 16 compounds.

As usually defined, the IC50 is the concentration that gives 50% inhibition. A lower IC50 goes with inhibition by little substance.

The structures appear in SMILES notation.

In this experiment the target is LDHC (Homo sapiens, UniProt P07864). The experiment can be described thus: Coupled diaphorase assay (LDHC inhibition). It is filed as biochemical. Conditions: 10 nM LDHC, 500 μM lactate, 150 μM NAD+, 3 μM resazurin, fluorescence readout of resorufin. From the text: The inhibitory properties of the compounds were investigated using a coupled enzyme assay that links the lactate dehydrogenase (LDH) reaction to the production of fluorescent resorufin by diaphorase.
Chain of LDHC (P07864 whole entry): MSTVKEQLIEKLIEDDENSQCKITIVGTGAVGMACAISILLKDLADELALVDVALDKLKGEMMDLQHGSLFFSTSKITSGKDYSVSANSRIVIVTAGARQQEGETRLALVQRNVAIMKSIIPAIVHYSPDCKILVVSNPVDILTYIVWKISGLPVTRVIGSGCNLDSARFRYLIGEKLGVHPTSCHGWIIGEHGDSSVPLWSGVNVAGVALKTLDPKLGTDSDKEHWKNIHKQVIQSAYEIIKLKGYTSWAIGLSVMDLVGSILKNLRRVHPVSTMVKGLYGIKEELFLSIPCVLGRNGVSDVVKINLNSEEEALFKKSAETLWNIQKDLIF
Human lactate dehydrogenases (LDH) catalyze the reversible interconversion between pyruvate and lactate. LDH is capable of catalyzing both the forward (pyruvate to lactate) and the reverse (lactate to pyruvate) reaction, using either NADH or NAD+ as cofactor. The reaction proceeds in either direction dependent on various factors, such as substrate availability, the presence of necessary cofactors, temperature and pH.
The coupled assay relies on the […] of NAD+ to NADH throughout the conversion of lactate to pyruvate by LDHC. The produced NADH serves as cofactor in the diaphorase reaction, which reduces non-fluorescent resazurin to fluorescent resorufin. Therefore, the assay indirectly monitors the rate of pyruvate production. Although the consumption or formation of NADH can be directly monitored due to the intrinsic fluorescence of the molecule (excitation: 340 nm, emission: 460 nm) there are problems linked to the direct readout method. It has been shown that many compounds in chemical libraries interfere with the assay due to fluorescent properties similar to NADH. Shifting the assay to longer wavelengths by coupling the LDH reaction to the conversion of resazurin to fluorescent resorufin by diaphorase reduces this compound interference. The assay direction was thus chosen to provide a robust and reliable assay.
For the determination of IC50 values a coupled diaphorase assay was adopted from Bembenek et al. (A Fluorescence-Based Coupling Reaction for Monitoring the Activity of Recombinant Human NAD Synthetase. ASSAY and Drug Development Technologies, 2005. 3(5): 533-541). Compounds were tested in duplicates using 2-fold, 3-fold or 4-fold serial dilutions including 11 individual concentrations, starting from 5000 μM to 30 μM depending on their activity in initial tests. Positive (without compound in the presence of DMSO) and inhibition controls (oxamate, 28.7 mM final concentration in assay) or no-substrate controls representing 100% inhibition were added. Oxamate is a well characterized inhibitor of LDH that inhibits LDH enzyme activity in the mM range in vitro with high specificity (Papacostantinou et al., J. Biol. Chem. 236: 278-284, 1961). The controls allowed for the calculation of the percentage inhibition for each data point. The assay buffer consisted of 50 mM HEPES pH 7.4, 5 mM MgCl2 and 0.05% pluronic acid F-127. Enzyme solution with final concentrations of 10 nM LDHC, as well as 0.2 U/ml diaphorase was dispensed into 384-well plates (Greiner bio-one) using a CyBi®-SELMA robotic pipettor. Compound dilutions and the enzyme were incubated for at least 15 to 20 min at room temperature. Thereafter, the substrate solution was added (final concentrations: 500 μM lactate, 150 μM NAD^+, 3 μM resazurin). The reaction was quenched by the addition of a stop solution (final concentrations: 20 mM EDTA, 400 mM NaCl, 40 mM pyruvate). Fluorescence was read out after 5 min of incubation at an excitation wavelength of 560 nm and an emission wavelength of 590 nm on a BMG labtech FLUOstar OPTIMA or a Perkin Elmer Victor X plate reader. […]
For orientation: Resazurin is reduced to fluorescent resorufin, in cell work by metabolically active cells.

In turn, `O=C1CC(c2ccc(N3CCOCC3)cc2)(c2ccsc2)NC(=O)C1Sc1cc(Cl)ccc1Cl` (racemic) [Example 6, 3-((2,5-dichlorophenyl)thio)-6-(4-morpholinophenyl)-6-(thiophen-3-yl)piperidine-2,4-dione] came in with an IC50 of 0.5 to 10 µM.
The value for `O=C1CC(c2ccc(N3CCOCC3)cc2)(c2ccsc2)NC(=O)C1Sc1ccccc1Cl` (racemic) [Example 7, 3-((2-chlorophenyl)thio)-6-(4-morpholinophenyl)-6-(thiophen-3-yl)piperidine-2,4-dione] was 0.5 to 10 µM; that for `O=C1CC(c2ccc(N3CCOCC3)cc2)(c2ccsc2)NC(=O)C1Sc1cc(Cl)ccc1Cl` (single isomer, unassigned) [6 Enantiomer 1] was 10 to 50 µM.
Compound `O=C1CC(c2ccc(N3CCOCC3)cc2)(c2ccsc2)NC(=O)C1Sc1cc(Cl)ccc1Cl` (single isomer, unassigned) [6 Enantiomer 2] displayed an IC50 of 50 to 100 µM.
As to `O=C1CC(c2ccc(N3CCOCC3)cc2)(c2ccsc2)NC(=O)C1Sc1ccccc1Cl` (single isomer, unassigned) [7 Enantiomer 1], the IC50 is 0.5 to 10 µM.
`O=C1CC(c2ccc(N3CCOCC3)cc2)(c2ccsc2)NC(=O)C1Sc1ccccc1Cl` (single isomer, unassigned) [7 Enantiomer 2]: the IC50 lay within 10 to 50 µM.
The compound `O=C1CC(c2ccsc2)(c2cccc(OCC3CCCC3)n2)NC(=O)C1Sc1ccc(Cl)cc1Cl` (stereo not shown) [Example 1, 6-[6-(cyclopentylmethoxy)pyridin-2-yl]-3-[(2,4-dichlorophenyl)sulfanyl]-6-(thiophen-3-yl)piperidine-2,4-dione] yielded an IC50 of 50 to 100 µM.
In turn, `O=C1CC(c2ccsc2)(c2cccc(OCC3CCCC3)n2)NC(=O)C1Sc1ccc(F)cc1Cl` (stereo not shown) [Example 2, 3-[(2-chloro-4-fluorophenyl)sulfanyl]-6-[6-(cyclopentylmethoxy)pyridin-2-yl]-6-(thiophen-3-yl)piperidine-2,4-dione] came in with an IC50 of 0.5 to 10 µM.
As for `O=C1CC(c2ccsc2)(c2cccc(OCC3CCCC3)n2)NC(=O)C1Sc1cc(Cl)ccc1Cl` (stereo not shown) [Example 3, 6-[6-(cyclopentylmethoxy)pyridin-2-yl]-3-[(2,5-dichlorophenyl)sulfanyl]-6-(thiophen-3-yl)piperidine-2,4-dione], the IC50 lay in the range of 0.5 to 10 µM.
For the compound `O=C1CC(c2ccsc2)(c2cccc(OCC3CCCC3)n2)NC(=O)C1Sc1cccc(Cl)c1Cl` (stereo not shown) [Example 4, 6-[6-(cyclopentylmethoxy)pyridin-2-yl]-3-[(2,3-dichlorophenyl)sulfanyl]-6-(thiophen-3-yl)piperidine-2,4-dione], the IC50 fell in the range of 50 to 100 µM.
Take `O=C1CC(c2ccc(N3CCOCC3)cc2)(c2ccsc2)NC(=O)C1Sc1ccc(F)cc1Cl` (stereo not shown) [Example 5, 3-((2-chloro-4-fluorophenyl)thio)-6-(4-morpholinophenyl)-6-(thiophen-3-yl)piperidine-2,4-dione]: the IC50 was 0.5 to 10 µM.
As for `O=C1CC(c2ccsc2)(c2cccc(OCC3CCCC3)n2)NC(=O)C1Sc1ccccc1Cl` (stereo not shown) [Example 8, 3-((2-chlorophenyl)thio)-6-(6-(cyclopentylmethoxy)pyridin-2-yl)-6-(thiophen-3-yl)piperidine-2,4-dione], the figure is 0.5 to 10 µM; as for `O=C1NC(c2ccc(N3CCOCC3)cc2)(c2ccsc2)CC(OC(=O)c2ccncc2)=C1Sc1cc(Cl)ccc1Cl` (stereo not shown) [Example 9, 5-((2,5-dichlorophenyl)thio)-2-(4-morpholinophenyl)-6-oxo-2-(thiophen-3-yl)-1,2,3,6-tetrahydropyridin-4-yl isonicotinate], 0.5 to 10 µM.
`O=C1CC(c2ccsc2)(c2cccc(OC3COC3)n2)NC(=O)C1Sc1ccccc1Cl` (stereo not shown) [Example 10, 3-((2-chlorophenyl)thio)-6-(6-(oxetan-3-yloxy)pyridin-2-yl)-6-(thiophen-3-yl)piperidine-2,4-dione] came in with a half-maximal inhibitory concentration (IC50) of 10 to 50 µM.
Take `O=C1CC(c2ccsc2)(c2cccc(Cc3cccc(F)c3)n2)NC(=O)C1Sc1ccccc1Cl` (stereo not shown) [Example 11, 3-((2-chlorophenyl)thio)-6-(6-(3-fluorobenzyl)pyridin-2-yl)-6-(thiophen-3-yl)piperidine-2,4-dione]: the IC50 fell in the range of 0.5 to 10 µM.
`CC(C)CCOc1cccc(C2(c3ccsc3)CC(=O)C(Sc3ccccc3Cl)C(=O)N2)n1` (stereo not shown) [Example 12, 3-((2-chlorophenyl)thio)-6-(6-(isopentyloxy)pyridin-2-yl)-6-(thiophen-3-yl)piperidine-2,4-dione] gave an IC50 of 0.5 to 10 µM.
